In PubChem BioAssay (NCI):
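Cultured in 96-well plates, cells were exposed to test compound for 48 hours across five concentrations. At the GI50, growth is halved. TGI denotes the concentration required for complete inhibition of growth.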

How the values were obtained:
Assay in all cases: growth of human tumour cells (NCI), 48 h
M14 melanoma = test system: M14 melanoma
U251 CNS = test system: U251 CNS
CCRF-CEM leukemia = test system: CCRF-CEM leukemia
NCI-H522 lung = test system: NCI-H522 lung
HOP-62 NSCLC = test system: HOP-62 NSCLC
RPMI-8226 leukemia = test system: RPMI-8226 leukemia
NCI-H460 lung = test system: NCI-H460 lung
HCT-15 colon = test system: HCT-15 colon
UACC-62 melanoma = test system: UACC-62 melanoma
RXF 393 renal = test system: RXF 393 renal

Row | SMILES | TGI (M14 melanoma) [µM] | TGI (U251 CNS) [µM] | TGI (CCRF-CEM leukemia) [µM] | TGI (NCI-H522 lung) [µM] | TGI (HOP-62 NSCLC) [µM] | TGI (RPMI-8226 leukemia) [µM] | TGI (NCI-H460 lung) [µM] | TGI (HCT-15 colon) [µM] | TGI (UACC-62 melanoma) [µM] | TGI (RXF 393 renal) [µM] | GI50 (U251 CNS) [µM] | GI50 (UACC-62 melanoma) [µM] | GI50 (M14 melanoma) [µM] | GI50 (CCRF-CEM leukemia) [µM] | GI50 (NCI-H522 lung) [µM] | GI50 (HOP-62 NSCLC) [µM] | GI50 (RPMI-8226 leukemia) [µM] | GI50 (NCI-H460 lung) [µM] | GI50 (HCT-15 colon) [µM] | GI50 (RXF 393 renal) [µM]
1 | COc1cc(C2CC(C)(Nc3ccccc3)Oc3cc4c(cc32)OCO4)cc(OC)c1OC (configuration not stated) | > 63.1 | 17.2 | 3.72 | 10.7 | > 55.1 | 50.1 | 25.6 | > 100 | > 100 | > 100 |  |  |  |  |  |  |  |  |  | 
2 | CN(C)Cc1cc(C(=O)/C=C/c2ccc(O)cc2)cc(CN(C)C)c1O | > 100 | 32.2 | 88.3 | 75.6 | > 100 | 49.8 | > 100 | > 100 | > 100 | > 100 |  |  |  |  |  |  |  |  |  | 
3 | CCN(CC)CCOc1ccc(N2C(=O)c3cc(OC)c(OC)cc3C2=O)cc1 | > 100 | > 100 | > 100 | > 100 | > 100 | > 100 | > 100 | > 100 | > 100 | > 100 |  |  |  |  |  |  |  |  |  | 
4 | Clc1ccc(-c2nn3c(-c4ccncc4)nnc3s2)cc1 | > 100 | 75 | > 100 | > 100 | 51.3 | > 100 | > 100 | 90.7 | > 100 | 82.1 |  |  |  |  |  |  |  |  |  | 
5 | CC(=O)OCC1OC(n2cc([N+](=O)[O-])c(=O)[nH]c2=O)C(OC(C)=O)C(OC(C)=O)C1OC(C)=O (configuration not stated) | > 100 | > 100 | > 100 | > 100 | > 100 | > 100 | > 100 | > 100 | > 100 | > 100 |  |  |  |  |  |  |  |  |  | 
6 | CC(C(=O)n1nnc2ccccc21)N(c1ccccc1)c1ccccc1 (configuration not stated) | > 100 | > 100 | > 100 | > 100 | > 100 | > 100 | > 100 | > 100 | > 100 | > 100 |  |  |  |  |  |  |  |  |  | 
7 | CC1CC[C@@]2(OC1)OC1C[C@H]3[C@@H]4CC[C@H]5CC(OC6OC(CO)C(OC7OC(CO)C(O)C(O)C7OC7OC(CO)C(O)C(O)C7O)C(O)C6O)CCC5(C)[C@H]4CCC3(C)C1[C@@H]2C (some centres not stated) | 10.4 | 2.74 | 4.1 | 5.19 | 3.65 | 6.96 | 11.6 | 20.3 | 16.5 | 2.76 |  |  |  |  |  |  |  |  |  | 
8 | O=P(c1ccccc1)(c1ccccc1)N1O[C@@H](c2ccccc2)C=C[C@H]1c1ccccc1 | 23.9 | 16.9 | 53.5 | 24.5 | 46.5 | 56.6 | 20.1 | 26.3 | 19.5 | 22.9 |  |  |  |  |  |  |  |  |  | 
9 | CCCNC(=O)CCC(C)[C@H]1CCC2C3C(C[C@H](OC(C)=O)[C@@]21C)[C@@]1(C)CCC2(C[C@H]1C[C@H]3OC(C)=O)OOC1(CCC(C)CC1)OO2 (some centres not stated) | > 100 | 30.6 | 2.16 | 33.3 | 3.47 | 19.4 | 71.2 | > 100 | > 100 | > 100 |  |  |  |  |  |  |  |  |  | 
10 | O=C1c2cc3c(cc2CC1Br)CCC3 (configuration not stated) | 2.85 | 8.09 | 2.18 | 3 | 30.8 | 4.45 | 56.2 | 4.82 | 11.7 | 4.04 |  |  |  |  |  |  |  |  |  | 
11 | C=C[C@@H]1C(CO)=CCC2[C@H]1CCC1C(C)(C)C(=O)CC[C@]21C (some centres not stated) | > 100 | > 100 | > 100 | > 100 | > 100 | > 100 | > 100 | > 100 | > 100 | > 100 |  |  |  |  |  |  |  |  |  | 
12 | CC(C)/C(Cl)=N\OC(=O)Nc1ccc(C#N)cc1 | 7.85 | 31.9 | 6.85 | 3.21 | 31.6 | 6.88 | 33.4 | 22.6 | 31 | 8.01 |  |  |  |  |  |  |  |  |  | 
13 | O=C1CN2C(c3ccccc3)=NN(c3ccc([N+](=O)[O-])cc3)C2(c2ccccc2)c2cc(Cl)ccc2N1CC1CC1 (configuration not stated) | > 100 | > 100 | > 100 | > 100 | > 100 | > 100 | > 100 | > 100 | > 100 | > 100 |  |  |  |  |  |  |  |  |  | 
14 | Cc1cn(C2OC(C)(CO)C(O)C2O)c(=O)[nH]c1=O (configuration not stated) | > 100 | > 100 | > 100 | > 100 | > 100 | > 100 | > 100 | > 100 | > 100 | > 100 |  |  |  |  |  |  |  |  |  | 
15 | CCCCC1c2c([nH]c3ccccc23)C2C(=O)N(c3ccc(OC)cc3)C(=O)C2C1CCC (configuration not stated) | 8.53 | > 10 | 9.12 | > 10 | > 10 | 8.99 | > 10 | > 10 | 6.77 | > 10 |  |  |  |  |  |  |  |  |  | 
16 | CN(C)CCCN1C(=S)N(CCCN(C)C)c2c3cc(O)ccc3nc3c([N+](=O)[O-])ccc1c23 | 22.4 | 28 | 19 | 9.93 | 15.3 | 15.5 | 6.7 | 12.6 | 19.6 | 15.1 |  |  |  |  |  |  |  |  |  | 
17 | O=C(NCCN1CCOCC1)c1ccc2cc(C(=O)N3CC(CCl)c4ccc([N+](=O)[O-])cc43)[nH]c2c1 (configuration not stated) | > 100 | 57.8 | > 100 | 39.7 | 30.8 | 9.09 | 26.1 | > 100 | 43.4 | 20.4 |  |  |  |  |  |  |  |  |  | 

Row | SMILES | TGI (M14 melanoma) [µM] | TGI (U251 CNS) [µM] | TGI (CCRF-CEM leukemia) [µM] | TGI (NCI-H522 lung) [µM] | TGI (HOP-62 NSCLC) [µM] | TGI (RPMI-8226 leukemia) [µM] | TGI (NCI-H460 lung) [µM] | TGI (HCT-15 colon) [µM] | TGI (UACC-62 melanoma) [µM] | TGI (RXF 393 renal) [µM] | GI50 (U251 CNS) [µM] | GI50 (UACC-62 melanoma) [µM] | GI50 (M14 melanoma) [µM] | GI50 (CCRF-CEM leukemia) [µM] | GI50 (NCI-H522 lung) [µM] | GI50 (HOP-62 NSCLC) [µM] | GI50 (RPMI-8226 leukemia) [µM] | GI50 (NCI-H460 lung) [µM] | GI50 (HCT-15 colon) [µM] | GI50 (RXF 393 renal) [µM]
18 | COc1ccc(C2(CC(C)O)SCCCS2)cc1 (configuration not stated) | > 100 | > 100 | > 100 | > 100 | > 100 | > 100 | > 100 | > 100 | > 100 | > 100 |  |  |  |  |  |  |  |  |  | 
19 | CCN(C(=S)N[C@@H](Cc1ccccc1)C(=O)N[C@@H](CC(C)C)C(=O)OC)c1ccccc1 | > 100 | > 100 | > 100 | > 100 | > 100 | > 100 | > 100 | > 100 | > 100 | > 100 |  |  |  |  |  |  |  |  |  | 
20 | COc1cc(C2SCC(=O)N2c2ccc(NC(=O)c3ccc(N4C(=O)CSC4c4cc(OC)c(OC)c(OC)c4)cc3)cc2)cc(OC)c1OC (configuration not stated) | > 100 | > 100 | > 100 | > 100 | > 100 | > 100 | > 100 | > 100 | 76.6 | > 100 |  |  |  |  |  |  |  |  |  | 
21 | N#CCCN(CCC#N)c1ccc(/C=C2\N=C(c3ccccc3)N(c3ccc(Cl)cc3)C2=O)cc1 | > 100 | > 100 | > 100 | > 100 | > 100 | > 100 | > 100 | > 100 | > 100 | > 100 |  |  |  |  |  |  |  |  |  | 
22 | O=c1cc(N=P(c2ccccc2)(c2ccccc2)c2ccccc2)n(-c2ccccc2)c(=O)n1-c1ccccc1 | > 100 | 29.2 | 82.5 | 37.3 | 32.4 | 33 | 22 | > 100 | 39.6 | 15.1 |  |  |  |  |  |  |  |  |  | 
23 | O=c1c2cc3c(cc2[nH]c2ncccc12)OCO3 | > 10 | > 10 | > 10 | > 10 | > 10 | > 10 | > 10 | > 10 | > 10 | > 10 |  |  |  |  |  |  |  |  |  | 
24 | CCCn1c(CN(Cc2nc3ccccc3n2CCC)Cc2nc3ccccc3n2CCC)nc2ccccc21 | 42 | > 100 | 21.7 | > 59.9 | > 91 | 5.36 | 18.5 | > 43.4 | 18.3 | 8.96 |  |  |  |  |  |  |  |  |  | 
25 | CN(C)c1nc(=NCc2ccccc2)ss1 | > 10 | > 10 | 4.66 | > 10 | > 10 | > 10 | > 10 | > 10 | > 10 | > 10 |  |  |  |  |  |  |  |  |  | 
26 | O=c1oc(-c2ccc(O)c(O)c2)cc2cccc(O)c12 | 51.8 | 79.1 | > 46.1 | > 50.8 | 47.3 | 29.5 | > 68.2 | > 100 | 37.3 | 69.3 | 17.1 | 16.6 |  |  |  |  |  |  |  | 
27 | Nc1c(-c2cccc3ccccc23)c2ccc([N+](=O)[O-])cc2c(=O)n1-c1nc2ccccc2s1 | > 38.9 | > 50.5 | > 100 | 6.86 | 27.2 | > 49.6 | > 100 | > 48 | > 100 | > 31.3 |  |  |  |  |  |  |  |  |  | 
28 | N#CC(C#N)=CNC(=S)c1ccncc1 | > 100 | > 100 | > 100 | > 100 | > 100 | > 100 | > 100 | > 100 | > 100 | > 100 |  |  |  |  |  |  |  |  |  | 
29 | CC12CC(=O)C3C(C(=O)C1)C32C (configuration not stated) | > 100 | > 100 | > 100 | > 100 | > 100 | > 100 | > 100 | > 100 | > 100 | > 100 |  |  |  |  |  |  |  |  |  | 
30 | COc1ccc2nc3cc(Cl)ccc3c(NCCCNCCCNc3c4ccc(Cl)cc4nc4ccc(OC)cc34)c2c1 | 0.157 | 0.13 | 14.8 | 0.114 | 0.14 | 27.7 | 0.0131 | 1.06 | 0.189 | 0.453 |  |  |  |  |  |  |  |  |  | 
31 | N#C/C(=C\c1cc(Br)c(O)c(Br)c1)c1cccnc1 | > 100 | 35.6 | > 100 | > 100 | 97.2 | 86.3 | > 100 | 44 | > 100 | > 100 |  |  |  |  |  |  |  |  |  | 
32 | COc1cc2c(cc1-c1c(C)noc1C)cc(C)c(=O)n2Cc1ccccn1 | > 100 | > 100 | > 100 | 10.9 | > 100 | 3.86 | > 100 | > 100 | 15 | 5 | 4.43 | 0.407 | 0.797 | 1.57 | 0.542 | 0.489 | 0.307 | 6 | 0.694 | 0.498
33 | c1ccc2c(c1)NC(C1OC3CCCN3C1C1Nc3ccccc3S1)S2 (configuration not stated) | > 100 | > 100 | > 100 | > 100 | > 100 | 76.3 | > 100 | > 100 | > 100 | 97 |  |  |  |  |  |  |  |  |  | 
